Tests used:
Type in all cases: cell-based
[1] = test system: HCV genotype 1b (HCV-1b) replicon cells; experiment: HCV genotype 1b replicon cell assay (luciferase, Bright-Glo); details: Hepatitis C virus, 72 h, HCV-1b (Con1) replicon cells, 3 days
Description: (§1) The EC50 and CC50 values of anti-HCV compounds were determined by HCV genotype 1a (HCV-1a) and 1b (HCV-1b) stable transfected replication (replicon) cells. The source of genotype 1a replicon is H77 clones containing K1691R, K2040R and S2204I adaptive mutations. The source of genotype 1b replicon is Con1 clones containing E1202G, T1280I and K1846T adaptive mutations.
(§2) HCV 1a (HCV-1a) and 1b (HCV-1b) gene subtype replicon system contains the related HCV gene subtype non-structural protein gene, G418 resistance gene NEO and luciferase gene, which results in that HCV related protein and luciferase can be stably expressed in cells. By detecting the level of expression of luciferase gene, the level of HCV replication can be determined. Therefore, the system is used as a model for screening the activity of anti-HCV compound in vitro.
(§3) The compound powder was dissolved in 100% DMSO. Then the compound was diluted 5 times with 6 points, and added into the cell plate with Echo liquid handler. Ensure the final concentration of DMSO was 0.5%. Each compound was tested in duplicate.
(§4) 4) Diluting cells to 8×10^4 cells/mL with the culture medium, adding the diluted cells into the compound-containing 96-well plate (Greiner, Cat. #655090) (100 μL/well, 8000 cells/well) with automatic liquid separator (Thermo Scientific). Then place into a 37° C., 5% CO2 incubator for 3 days. Cell control well: no compound, only containing 0.5% DMSO.
(§5) 6) Then adding luciferase substrate Bright-Glo, after incubation for 5 minutes, detecting the luciferase activity by microplate reader Envison (wavelength>700 nm); analyzing the anti-HCV inhibitory activity of the compounds according to luminescence data, which was used to calculate EC50 values.
(§6) The EC50 or CC50 values were obtained by nonlinear fitting regression on inhibition percentage (inh %) data with GraphPad Prism software.

[2] = test system: HCV genotype 1a (HCV-1a) replicon cells; experiment: HCV genotype 1a replicon cell assay (luciferase, Bright-Glo); details: Hepatitis C virus, 72 h, HCV-1a (H77) replicon cells, 3 days
Description: as §1, §2, §3, §4, §5, §6

[3] = Cytotoxicity in HCV replicon cells (Cell Titer-fluor)
Description: as §1, §3, §4
5) Adding fluorescence substrate Cell Titer-fluor to the cell well, after incubation for 30 minutes, detecting the signal by microplate reader Envison (Ex at 405 nm and read at 515 nm). The effect of the compounds on the cytotoxicity of HCV replicon cells was analyzed according to the fluorescence data, which was used to calculate the CC50 values.
as §6

Row | SMILES | EC50 [1] [µM] | EC50 [2] [µM] | CC50 at 3 days [3] [µM]
1 | CC1(O)CN(C(=O)C2CCN(C(=O)c3oc4c(C(F)(F)F)cc(C5CC5)cc4c3Cl)CC2)C1 [YD_0345] | 1 to 5 | 0.1 to 1 | > 3
2 | CC1CN(C)CCN1C(=O)C1CCN(C(=O)c2oc3c(C(F)(F)F)cc(C4CC4)cc3c2Cl)CC1 (stereo not drawn) [YD_0321] | 1 to 5 | 0.1 to 1 | > 3
3 | CC(C)N1CCN(C(=O)c2oc3c(C(F)(F)F)cc(C4CC4)cc3c2Cl)NC1=O [YD_0374] | 0.0001 to 0.1 | 0.0001 to 0.1 | > 3
4 | CC1CN(C(=O)C2CCN(C(=O)c3oc4c(C(F)(F)F)cc(C5CC5)cc4c3Cl)CC2)CCN1 (stereo not drawn) [YD_0326] | 1 to 5 | 0.1 to 1 | > 3
5 | O=C(c1oc2c(C(F)(F)F)cc(C3CC3)cc2c1Cl)N1CCCN(N2CCOC2=O)CC1 [YD_0279] | 0.0001 to 0.1 | 0.0001 to 0.1 | > 3
6 | CC(C)N1CCN(C(=O)c2nn3c(C(F)(F)F)cc(C4CC4)cc3c2Cl)NC1=O [YH_0373] | 0.0001 to 0.1 | 0.0001 to 0.1 | > 3
7 | O=C(c1oc2c(C(F)(F)F)cc(C3CC3)cc2c1Cl)N1CCC(=O)N(C2CCCC2)CC1 [YD_0330] | 0.0001 to 0.1 | 0.1 to 1 | > 3
8 | CC1CN(C(=O)C2CCN(C(=O)c3oc4c(C(F)(F)F)cc(C5CC5)cc4c3Cl)CC2)CCO1 (stereo not drawn) [YD_0323] | 0.1 to 1 | 0.1 to 1 | > 3
9 | NC(=O)C1CN(C(=O)C2CCN(C(=O)c3oc4c(C(F)(F)F)cc(C5CC5)cc4c3Cl)CC2)C1 [YD_0353] | 1 to 5 | 0.1 to 1 | > 3
10 | N#CC1CN(C(=O)C2CCN(C(=O)c3oc4c(C(F)(F)F)cc(C5CC5)cc4c3Cl)CC2)C1 [YD_0352] | 1 to 5 | 0.1 to 1 | > 3
11 | CN(C)C(=O)C1CCN(C(=O)c2oc3c(C(F)(F)F)cc(C4CC4)cc3c2Cl)CC1 [YD_0273] | 0.0001 to 0.1 | 0.0001 to 0.1 | > 3
12 | CN1CCN(C(=O)C2CCN(C(=O)c3oc4c(C(F)(F)F)cc(C5CC5)cc4c3Cl)CC2)CC1 [YD_0305] | 1 to 5 | 0.1 to 1 | > 3
13 | O=C(c1oc2c(C(F)(F)F)cc(C3CC3)cc2c1Cl)N1CCC(C(=O)N2CC(F)C2)CC1 [YD_0342] | 0.0001 to 0.1 | 0.0001 to 0.1 | > 3
14 | COC1CN(C(=O)C2CCN(C(=O)c3oc4c(C(F)(F)F)cc(C5CC5)cc4c3Cl)CC2)C1 [YD_0340] | 0.1 to 1 | 0.1 to 1 | > 3
15 | O=C(c1oc2c(C(F)(F)F)cc(C3CC3)cc2c1Cl)N1CCN(N2CCOC2=O)C(=O)C1 [YD_0219] | 0.0001 to 0.1 | 0.0001 to 0.1 | > 3
16 | O=C(c1oc2c(C(F)(F)F)cc(C3CC3)cc2c1Cl)N1CCN(C2CCCC2)C(=O)N1 [YD_0357] | 0.0001 to 0.1 | 0.0001 to 0.1 | > 3
17 | CCCc1cc(C(F)(F)F)c2oc(C(=O)N3CCN(N4CCOC4=O)CC3)c(Cl)c2c1 [YD_0216] | 0.0001 to 0.1 | 0.0001 to 0.1 | > 3
18 | O=C(c1oc2c(C(F)(F)F)cc(C3CC3)cc2c1Cl)N1CCN(C23CC(C2)C3)C(=O)C1 [YD_0253] | 0.0001 to 0.1 | 0.1 to 1 | > 3
19 | CC1CNCCN1C(=O)C1CCN(C(=O)c2oc3c(C(F)(F)F)cc(C4CC4)cc3c2Cl)CC1 (stereo not drawn) [YD_0322] | 0.1 to 1 | 0.1 to 1 | > 3
20 | Cc1cc(C(F)(F)F)c2nc(C(=O)N3CCN(C(C)(C)C)C(=O)N3)c(Cl)n2c1 [YA_0368] | 0.1 to 1 | 0.0001 to 0.1 | > 3
21 | O=C(c1nn2c(C(F)(F)F)cc(C3CC3)cc2c1Cl)N1CCN(C2CCCC2)C(=O)N1 [YH_0369] | 1 to 5 | 0.1 to 1 | > 3
22 | O=C(c1oc2c(C(F)(F)F)cc(C3CC3)cc2c1Cl)N1CCC(C(=O)N2CC(CO)C2)CC1 [YD_0355] | 1 to 5 | 0.1 to 1 | > 3

From patent US10100027B2, “Benzofuran analogue as NS4B inhibitor” (priority 2014, dated 2018)
